SMILES strings stand for the structures.

Among the data in patent publication US5155127A, “N-(substituted aryl)-N'-(substituted alkoxy)-ureas and thioureas as antihypercholesterolemic and antiatherosclerotic agents” (priority 1990, dated 1992) are IC50 values, retold here.

This assay addresses T1, acyl-CoA:cholesterol acyltransferase (ACAT) (Oryctolagus cuniculus, UniProt G1SFD9).
T1 construct: tissue preparation containing rabbit intestinal microsomes; from tissue; host or cells: rabbit intestinal microsomes
T1 sequence (G1SFD9 1-524): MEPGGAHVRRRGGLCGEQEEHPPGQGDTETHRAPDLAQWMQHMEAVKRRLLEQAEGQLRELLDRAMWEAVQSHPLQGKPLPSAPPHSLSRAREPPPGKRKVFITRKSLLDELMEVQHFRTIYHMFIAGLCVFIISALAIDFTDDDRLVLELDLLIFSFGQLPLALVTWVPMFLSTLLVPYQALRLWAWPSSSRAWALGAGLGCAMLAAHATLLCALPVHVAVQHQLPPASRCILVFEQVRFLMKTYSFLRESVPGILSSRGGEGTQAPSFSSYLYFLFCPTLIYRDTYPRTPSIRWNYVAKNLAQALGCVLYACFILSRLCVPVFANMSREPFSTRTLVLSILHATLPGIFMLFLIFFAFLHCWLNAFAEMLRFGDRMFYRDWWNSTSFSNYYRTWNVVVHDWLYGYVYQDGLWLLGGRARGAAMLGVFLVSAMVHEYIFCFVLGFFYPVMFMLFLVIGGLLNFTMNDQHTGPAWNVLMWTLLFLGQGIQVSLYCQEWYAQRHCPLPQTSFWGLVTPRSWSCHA
Put plainly: in vitro ACAT inhibition: radio-labeled cholesterol oleate formation from radio-labeled oleic acid in rabbit intestinal microsomes. It counts as biochemical. As to conditions: read-out: IC50 (concentration of test compound required to inhibit cholesteryl oleate formation to 50% of control). Here is the method: The ability of representative compounds of the present invention to inhibit ACAT was measured using an in vitro test more fully described in Field, F. J. and Salome, R. G., Biochimica et Biophysica Acta, volume 712, pages 557-570 (1982). The test assesses the ability of a test compound to inhibit the acylation of cholesterol by oleic acid by measuring the amount of radio-labeled cholesterol oleate formed from radio-labeled oleic acid in a tissue preparation containing rabbit intestinal microsomes. The data in Table I is expressed as IC50 values, i.e., the concentration of test compound required to inhibit cholesteryl oleate formation to 50% of control.
On to `CC(C)c1cccc(C(C)C)c1NC(=O)NOC(c1ccccc1)c1ccccc1` [Example 1, N-[2,6-Bis(1-methylethyl)phenyl]-N'-(diphenylmethoxy)-urea], for which the IC50 came out at 30 nM.

For the compound `CC(C)c1cccc(C(C)C)c1NC(=O)NOCc1cccc2ccccc12` [Example 3, N-[2,6-Bis(1-methylethyl)phenyl]-N'-(1-naphthalenylmethoxy)-urea], the IC50 was found to be 92 nM.

On to `CC(C)c1cccc(C(C)C)c1NC(=O)NOC(c1ccccc1)(c1ccccc1)c1ccccc1` [Example 2, N-[2,6-Bis(1-methylethyl)phenyl]-N'-(triphenylmethoxy)urea], for which the IC50 is 53 nM.
